We go through nine molecules from patent publication US20250287930A1, “REGULATION OF IMMUNE RESPONSES THROUGH SELECTIVE NEURAL ACTIVATION” (The Trustees of Columbia University in the City of New York, priority 2024, published 2025).

The test system of one test is vagal sensory neurons. Nature of the test: Vagal calcium imaging of nodose ganglion (GCaMP6s in all vagal sensory neurons). The class given is in vivo, mice. The following applies: for number of responding vagal sensory neurons: of 423 imaged vagal sensory neurons, cytokine intraperitoneal; for calcium activity in a subset of vagal sensory neurons: intraperitoneal cytokine, nodose ganglion. The procedure: (§1) Calcium imaging of the nodose ganglion was conducted as described previously (Li, M. et al. Nature 610, 722-730, (2022); Tan, H. E. et al. Nature 580, 511-516, (2020)). For imaging in response to intragastric delivery of glucose (or linoleic acid), and IP injections of saline control and cytokines, a typical recording session consisted of: 1st: saline; 2nd: one of the three pro-inflammatory cytokines (TNF-α, IL-1β or IL-6); 3rd: anti-inflammatory cytokine (IL-10); 4th and 5th: two trials with glucose (or linoleic acid); each trial was 5 min. Cytokines were injected 1 min after the onset of the recording. Glucose (500 mM) and linoleic acid (10%) was delivered intragastrically. For all experiments 100 μg kg-1 of each cytokine was used. To deliver cytokines […], a segment of the intestine was placed in a custom-made perfusion chamber while still keeping it connected to the remainder of the gastrointestinal tract (no carbogenation). Each recording session included six interleaved trials, with 2 trials for each stimulus. Trials were 15 mins long, and consisted of a 180-s baseline (saline), a 180-s cytokine or control stimulus, and a 9-min washout (saline) period. The flow rates were maintained at around 600 μl min-1 throughout the experiment to minimize mechanical responses that may occur during the transition between trials. Cytokines were dissolved in saline at the concentration of 1 μg ml-1. During the entire perfusion session, all of the solutions were maintained at 37° C.
Imaging data was acquired exactly as previously described (Li, M. et al. Nature 610, 722-730, (2022); Tan, H. E. et al. Nature 580, 511-516, (2020)). Neuronal activity was analyzed for significant stimulus-evoked responses as described. The baseline distribution of deviations was first computed from the median for each cell throughout the entire experiment using periods prior to the stimulus delivery. Subsequently, this baseline was utilized to derive a modified z-score by subtracting the median and dividing by the median absolute deviation. Trials with an average modified z-score above 1.6 for the 180s (stimuli delivered via IP) or 480s (stimuli delivered via perfusion) following the initiation of stimulation were classified as responding trials (all responders had minimal peak amplitudes of 1% ΔF/F). Z-scores from responders were normalized across stimuli to generate heat maps of normalized fluorescence traces.

Test [1] has as its system cNST neurons. In words: Fos induction in the cNST after intraperitoneal immune stimulation. The class given is in vivo, mice. The following applies: for Fos induction in the cNST: intraperitoneal injection, brains taken 2 h later. The method, then:
(§2) Mice housed in their home cages were injected intraperitoneally with lipopolysaccharide (LPS, 50 μg kg-1, Cell Signaling Technology, #14011), lipoteichoic acid (LTA, 1 mg kg-1 Sigma, #L2512), Flagellin (20 μg kg-1, Sigma Aldrich #SRP8029), Profilin (20 μg kg-1, Sigma Aldrich, #SRP8050), Zymosan (2.5 mg kg-1, Sigma Aldrich #Z4250), IL-10 (100 μg kg-1, BioLegend, #575804), a cocktail of IL-6 (100 μg kg-1, BioLegend #575706), IL-1β (100 μg kg-1, R&D, #401-ML) and TNF-α (100 μg kg-1, R&D, #410-MT), or saline control (0.9% NaCl), then 2 h later, perfused transcardially with PBS followed by 4% paraformaldehyde. Brains were dissected, fixed in 4% PFA overnight at 4° C., and then sliced coronally at 100 μm thickness. The brain sections were permeabilized and blocked with 10% normal donkey serum (EMD Millipore, #S30) in PBS containing 0.3% Triton X-100. Sections were incubated with an anti-Fos primary antibody (SYSY, #226004 guinea pig, diluted 1:5,000) at 4° C. overnight, followed by labeling with a secondary antibody (Alexa Fluor 647-conjugated donkey anti-guinea pig, Jackson ImmunoResearch, #706605148) at room temperature for 2 h. For double RNA in situ hybridization, fixed frozen nodose ganglia or brains were sectioned at 16 μm thickness and processed for mRNA detection using the RNAscope Fluorescent Multiplex Kit (Advanced Cell Diagnostics) following the manufacturer's instructions. The following RNAscope probes were used: Fos (#316921-C2), Dbh (#464621-C1), Trpa1 (#400211-C3) and Calca (#578771-C2), GFP (#400281-C1). Images were acquired using an Olympus FluoView 1000 confocal microscope. Quantification of fluorescent signals was carried out by manually counting the number of positive neurons.

The subject of test [2] is LPS-activated neurons in the cNST. In words: Chemogenetic activation of LPS-TRAPed cNST neurons, cytokines. Type of test: in vivo, mice. The method, then: (§3) All stereotaxic surgery procedures were carried out using aseptic technique. […] The viral constructs were injected into the cNST through a small craniotomy. The injection coordinates (based on Paxinos stereotaxic coordinates) for virus delivery in the cNST were as follows: caudal 7.5 mm, lateral ±0.3 mm, ventral 3.7-4 mm, all relative to Bregma. In chemogenetic experiments, TRAP2, Dbh-cre, Vglut2-cre and Vgat-cre mice received bilateral injections of 200 nl of AAV9-Syn-DIO-hM3Dq (Addgene, #44361-AAV9) and 300 nl of AAV9-Syn-DIO-hM4Di (Addgene, #44362-AAV9) in the cNST. Equivalent volumes of AAV9-Syn-DIO-mCherry (Addgene, #50459-AAV9) were injected as controls. For fiber photometry experiments, Vglut2-cre mice were unilaterally injected with 100 nl of AAV9-Syn-Flex-GCaMP6s (Addgene, #100845-AAV9) in the cNST, and an optical fiber (400 μm core, 0.48 NA, Doric Lenses) was implanted 50-100 μm above the GCaMP virus injection site.
(§4) The TRAP strategy was used in TRAP2 mice to gain genetic access to LPS-activated neurons in the cNST. […]
(§5) When using TRAP2 animals, at least 4 weeks elapsed between TRAPing and CNO treatment. […] Cytokines in the blood were measured using commercially available ELISA kits (R&D), following manufacturer's instructions. […]

Another test relates to DBH neurons in the cNST. In words: Fos induction in DBH neurons in the cNST by LPS and cytokine stimulation. Type of test: in vivo. The settings on record: Dbh-cre mice, intraperitoneal injection. The method, then:
as §2, with “For double RNA in situ hybridization, fixed frozen nodose ganglia or brains were sectioned at 16 μm thickness and processed for mRNA detection using the RNAscope Fluorescent Multiplex Kit (Advanced Cell Diagnostics) following the manufacturer's instructions. The following RNAscope probes were used: Fos (#316921-C2), Dbh (#464621-C1), Trpa1 (#400211-C3) and Calca (#578771-C2), GFP (#400281-C1). Images were acquired using an Olympus FluoView 1000 confocal microscope.” left out

In the next test the test system is circulating cytokines. In words: LPS-induced circulating cytokines in peripheral blood by ELISA. The class given is in vivo, mice. The method, then: When using TRAP2 animals, at least 4 weeks elapsed between TRAPing and CNO treatment. Two doses (2 mg kg-1 and 1 mg kg-1) of CNO were given intraperitoneally at 12 h and 1 h prior to saline or LPS stimulation. Two hours after the intraperitoneal injection of saline or LPS (0.1 mg kg-1), blood samples were collected from either the submandibular or the tail vein. Cytokines in the blood were measured using commercially available ELISA kits (R&D), following manufacturer's instructions. Saline and LPS experiments were conducted on the same cohort of mice but at least 7 days apart.
To examine LPS-induced cytokine responses over time, wild-type (C56BL/6J) mice were injected IP with saline or LPS, and peripheral blood samples were collected at 0, 2 hours, 4 hours, and 6 hours post-stimulation.

Test [3] relates to LPS-activated neurons in the cNST. Nature of the test: Chemogenetic inhibition of LPS-TRAPed cNST neurons, LPS-evoked cytokines. Type of test: in vivo, mice. The following applies: LPS-treated but not silenced animals. Also noted: unit not given here. The procedure: as §3, §4, §5
Test [4] deals with cNST neurons. Nature of the test: Fiber photometry of LPS-evoked activity in the cNST (GCaMP6s, Vglut2-cre mice). Type of test: in vivo. The method, then: as §3
Photometry experiments were conducted at least 14 days after the stereotaxic viral injection and fiber implantation (see the section on stereotaxic surgery for details). Prior to the experiments, mice were acclimated to the recording chamber for 1 h per day over 3 consecutive days. On the 4th and 5th day, mice were recorded for the bulk GCaMP responses to saline and LPS (0.5 mg kg-1), respectively, in a 5 h recording session. Saline and LPS were intraperitoneally injected 15 min after the onset of recording. Real-time population-level GCaMP fluorescence signals were detected, amplified and recorded using a RZ5P fiber photometry system with Synapse software (Tucker Davis Technologies). The collected data were downsampled, detrended and smoothed by custom MATLAB code. The calcium transients were identified as described previously (Barretto, R. P. et al. Nature 517, 373-376, (2015); Rousseeuw, P. J. C., C. J. Am. Stat. Assoc. 88, 1273-1283, (1993); Jin, H., Fishman, Z. H., Ye, M., Wang, L. & Zuker, C. S. Cell 184, 257-271 e216, (2021)) and the area under the curve (AUC) was calculated by integrating fluorescence signal under identified calcium transients. […]

The subject of a further test is TRPA1 vagal neurons. In words: Calcium imaging of TRPA1 vagal neurons. The class given is in vivo, mice. The procedure:
as §1, with “Trials were 15 mins long, and consisted of a 180-s baseline (saline), a 180-s cytokine or control stimulus, and a 9-min washout (saline) period. The flow rates were maintained at around 600 μl min-1 throughout the experiment to minimize mechanical responses that may occur during the transition between trials. Cytokines were dissolved in saline at the concentration of 1 μg ml-1. During the entire perfusion session, all of the solutions were maintained at 37° C.” left out
Imaging data was acquired exactly as previously described (Li, M. et al. Nature 610, 722-730, (2022); Tan, H. E. et al. Nature 580, 511-516, (2020)). Neuronal activity was analyzed for significant stimulus-evoked responses as described. […] Z-scores from responders were normalized across stimuli to generate heat maps of normalized fluorescence traces.

For the molecule IL-1β: pro-inflammatory cytokine, the “number of responding vagal sensory neurons” value in the test on vagal sensory neurons was determined as 8.
Take lipoteichoic acid [LTA]: in the test with cNST neurons [1], the “Fos induction in the cNST” value is reported as “robustly activated Fos”.
For `C[N+]1([O-])CCN(C2=Nc3cc(Cl)ccc3Nc3ccccc32)CC1` [CNO, clozapine N-oxide], in test [2], the “anti-inflammatory cytokines (IL-10), change on activation” value is “very large increase” and the “pro-inflammatory cytokines, change on activation” value is given as “dramatic suppression”.
As for lipopolysaccharide [LPS], the “Fos expression in the cNST of Myd88−/− mice” value in the test on cNST neurons [1] (Myd88−/− mice, LPS intraperitoneally, 2 h) is “largely absent”. For the same molecule, the “Fos induction in the cNST” value in the test with cNST neurons [1] is reported as “robustly activated Fos”. Further, the “activation (Fos) of DBH neurons in the cNST” value in the test with DBH neurons in the cNST is “activate DBH neurons”. Besides, in the test with circulating cytokines (IL-6, IL-1β, TNF-α, IL-10, 2 h after LPS), the “cytokine induction in Myd88−/− mice” value is given as “dramatically reduced”. Besides, in the test on circulating cytokines (control animals given LPS), the “TNFa in the peripheral blood” value came to 200 pg/mL. In test [3], this molecule had an IL-1β level of 200 and an IL-10 level of 750. In the test on vagal sensory neurons (LPS 0.5 mg kg-1), the “direct activation of vagal neurons” value is recorded as “not directly activated”. Also, the “reduction of average cNST response after vagotomy” value in the test on cNST neurons [4] (LPS 0.5 mg kg-1) is reported as ~80%. For the same molecule, the “cNST GCaMP6s response, AUC (area under the curve)” value with cNST neurons [4] (LPS 0.5 mg kg-1, after bilateral vagotomy) amounted to 10.6±6.1. The “cNST GCaMP6s response, AUC (area under the curve)” value in the test with cNST neurons [4] (LPS 0.5 mg kg-1, intact vagus) worked out at 52.6±7.2.
Consider tumor necrosis factor [TNF-α], for which, in the test with vagal sensory neurons, the “calcium activity in a subset of vagal sensory neurons” value is recorded as “triggered robust activity” and the “number of responding vagal sensory neurons” value was determined as 13.
In the case of Profilin, the “Fos induction in the cNST” value in the test with cNST neurons [1] is “robustly activated Fos”.
On the same count and under the same terms, under Flagellin stands “robustly activated Fos”.

B1: interleukin-4 (protein, UniProt P05112 25-153, looked up)
Interleukin-4: HKCDITLQEIIKTLNSLTEQKTLCTELTVTDIFAASKNTTEKETFCRAATVLRQFYSHHEKDTRCLGATAQQFHRHKQLIRFLKRLDRNLWGLAGLNSCPVKEANQSTLENFLERLKTIMREKYSKCSS
notes: anti-inflammatory cytokine
Regarding B1, the “calcium activity in a subset of vagal sensory neurons” value in the test with vagal sensory neurons is “triggered robust activity”.

B2: interleukin-10 (protein, UniProt P22301 19-178, looked up)
Interleukin-10: SPGQGTQSENSCTHFPGNLPNMLRDLRDAFSRVKTFFQMKDQLDNLLLKESLLEDFKGYLGCQALSEMIQFYLEEVMPQAENQDPDIKAHVNSLGENLKTLRLRLRRCHRFLPCENKSKAVEQVKNAFNKLQEKGIYKAMSEFDIFINYIEAYMTMKIRN
notes: anti-inflammatory cytokine
As for B2, the “Fos induction in the cNST” value with cNST neurons [1] is on record as “induces significant Fos labelling”. For the same molecule, the “activation (Fos) of DBH neurons in the cNST” value in the test on DBH neurons in the cNST is listed as “activate DBH neurons”. Also, the “number of responding vagal sensory neurons” value with vagal sensory neurons was 11/423. Also, the “activation of TRPA1-expressing vagal neurons” value in the test on TRPA1 vagal neurons (GCaMP6s imaging) is “activated”. Further, the “number of responding TRPA1 neurons” value in the test on TRPA1 vagal neurons (imaged TRPA1 neurons, IP or perfusion) is listed as 27 of 189.
